Measurements: paper PMC10331583, “Control of fibrosis with enhanced safety via asymmetric inhibition of prolyl‐tRNA synthetase 1” (EMBO Molecular Medicine, 2023)
Where “and” joins values, the source holds several entries; their conditions need not be identical. Equal values may be shown once. Read-outs that look alike come from different tables or passages of the source.

Assays:
WI‐26 VA4 cells [1] = test: CellTiter‐Glo assay (cytotoxicity)
Description: After 24 h, the cells were incubated with various concentrations of compounds for 48 h. The level of ATP as a measure of cell viability was determined using a CellTiter‐Glo® luminescent cell viability assay kit (Promega, G7571) following the manufacturer's instructions.
WI‐26 VA4 cells were seeded at 1.2 × 10^4 cells/well in 96‐well white plates. After 24 h, the cells were incubated with the indicated concentrations of compounds for 72 h. The viability was determined as described above.

WI‐26 VA4 cells [2] = test: Collagen ELISA (secreted pro‐collagen I)
[3] = tested on: WI‐26 VA4 cells stably expressing PARS1 FA/EA/RL mutant; test: Collagen ELISA in cells stably expressing PARS1 mutant; conditions: for Collagen level, average: average of 4 experiments; for Collagen level, single replicates: replicates of Experiments #1-#4
[4] = log(inhibitor) vs. response, variable slope (four parameters), concentration in nM
[5] = WI-26 VA4 Flag-PARS1 FA/EA/RL, 0.3 nM
[6] = WI-26 VA4 Flag-PARS1 FA/EA/RL, 1 nM
[7] = WI-26 VA4 Flag-PARS1 FA/EA/RL, 3 nM
[8] = WI-26 VA4 Flag-PARS1 FA/EA/RL, 10 nM
[9] = WI-26 VA4 Flag-PARS1 FA/EA/RL, 30 nM
[10] = WI-26 VA4 Flag-PARS1 FA/EA/RL, 100 nM
[11] = WI-26 VA4 Flag-PARS1 FA/EA/RL, 300 nM
[12] = WI-26 VA4 Flag-PARS1 FA/EA/RL, 1000 nM

In the case of O=C(CC1NCCCC1O)Cn1cnc2cc(Br)c(Cl)cc2c1=O (centres unmarked) [HF, Halofuginone, reference compound], the activity at 10 µM (WI‐26 VA4 cells [1]; Homo sapiens, WI26VA4, read-out: CellTiter-Glo % of control, 10000 nM, Experiment #1, replicates) is reported as 1.85%, the activity at 10 µM (WI‐26 VA4 cells [1]; Homo sapiens, WI26VA4, read-out: CellTiter-Glo % of control, 10000 nM, Experiment #2, replicates) is reported as 4.64% and the activity at 30 µM (WI‐26 VA4 cells [1]; Homo sapiens, WI26VA4, read-out: CellTiter-Glo % of control, 30000 nM, Experiment #2, replicates) is reported as 1.49%. For the same compound, the activity at 0.0003 µM (WI‐26 VA4 cells [1]; Homo sapiens, WI26VA4, read-out: CellTiter-Glo % of control, average, 0.3 nM, average) was 103%, the activity at 0.001 µM (WI‐26 VA4 cells [1]; Homo sapiens, WI26VA4, read-out: CellTiter-Glo % of control, average, 1 nM, average) was 102% and the activity at 0.01 µM (WI‐26 VA4 cells [1]; Homo sapiens, WI26VA4, read-out: CellTiter-Glo % of control, average, 10 nM, average) was 92.4%. The activity at 0.03 µM (WI‐26 VA4 cells [1]; Homo sapiens, WI26VA4, read-out: CellTiter-Glo % of control, average, 30 nM, average) was 77.3%, the activity at 0.1 µM (WI‐26 VA4 cells [1]; Homo sapiens, WI26VA4, read-out: CellTiter-Glo % of control, average, 100 nM, average) was 30.6% and the activity at 0.3 µM (WI‐26 VA4 cells [1]; Homo sapiens, WI26VA4, read-out: CellTiter-Glo % of control, average, 300 nM, average) was 18.1%. It also gave an activity at 1 µM (WI‐26 VA4 cells [1]; Homo sapiens, WI26VA4, read-out: CellTiter-Glo % of control, average, 1000 nM, average) of 23.7%, an activity at 3 µM (WI‐26 VA4 cells [1]; Homo sapiens, WI26VA4, read-out: CellTiter-Glo % of control, average, 3000 nM, average) of 10.2% and an activity at 10 µM (WI‐26 VA4 cells [1]; Homo sapiens, WI26VA4, read-out: CellTiter-Glo % of control, average, 10000 nM, average) of 3.39%. For the same compound, the activity at 30 µM (WI‐26 VA4 cells [1]; Homo sapiens, WI26VA4, read-out: CellTiter-Glo % of control, average, 30000 nM, average) was 1.53%, the activity at 100 µM (WI‐26 VA4 cells [1]; Homo sapiens, WI26VA4, read-out: CellTiter-Glo % of control, average, 100000 nM, average) was 0.00424% and the “CellTiter-Glo LogIC50 (best-fit value)” value (WI‐26 VA4 cells [1]; [4]) was 1.708. For the same compound, the IC50 (WI‐26 VA4 cells [2]; Homo sapiens, WI26VA4, 72 h, read-out: IC50 for collagen level, TGF‐β 2 ng/ml, 72 h (Fig 1B)) was 15.2 nM, the IC50 (WI‐26 VA4 cells [2]; Homo sapiens, WI26VA4, read-out: Collagen IC50 (best-fit value), log(inhibitor) vs. response, variable slope (four parameters) (converted)) was 15.2 nM and the activity at 1 µM (WI‐26 VA4 cells [2]; Homo sapiens, WI26VA4, read-out: Collagen, % of control (single replicates per experiment), 1000 nM) was 3.91%. It also gave an activity at 0.0003 µM (WI‐26 VA4 cells [2]; Homo sapiens, WI26VA4, read-out: Collagen, % of control, average, 0.3 nM, average) of 96.4%, an activity at 0.001 µM (WI‐26 VA4 cells [2]; Homo sapiens, WI26VA4, read-out: Collagen, % of control, average, 1 nM, average) of 103% and an activity at 0.003 µM (WI‐26 VA4 cells [2]; Homo sapiens, WI26VA4, read-out: Collagen, % of control, average, 3 nM, average) of 101%. For the same compound, the activity at 0.01 µM (WI‐26 VA4 cells [2]; Homo sapiens, WI26VA4, read-out: Collagen, % of control, average, 10 nM, average) was 71.9%, the activity at 0.03 µM (WI‐26 VA4 cells [2]; Homo sapiens, WI26VA4, read-out: Collagen, % of control, average, 30 nM, average) was 21.6% and the activity at 0.1 µM (WI‐26 VA4 cells [2]; Homo sapiens, WI26VA4, read-out: Collagen, % of control, average, 100 nM, average) was 3.57%. For the same compound, the activity at 0.3 µM (WI‐26 VA4 cells [2]; Homo sapiens, WI26VA4, read-out: Collagen, % of control, average, 300 nM, average) was 2.57%, the activity at 1 µM (WI‐26 VA4 cells [2]; Homo sapiens, WI26VA4, read-out: Collagen, % of control, average, 1000 nM, average) was 3.27% and the activity at 0.0003 µM (WI‐26 VA4 cells [2]; Homo sapiens, WI26VA4, read-out: Efficacy, % of control, average, 0.3 nM) was 104%. It also gave an activity at 0.001 µM (WI‐26 VA4 cells [2]; Homo sapiens, WI26VA4, read-out: Efficacy, % of control, average, 1 nM) of 104%, an activity at 0.003 µM (WI‐26 VA4 cells [2]; Homo sapiens, WI26VA4, read-out: Efficacy, % of control, average, 3 nM) of 108% and an activity at 0.01 µM (WI‐26 VA4 cells [2]; Homo sapiens, WI26VA4, read-out: Efficacy, % of control, average, 10 nM) of 73%. For the same compound, the activity at 0.03 µM (WI‐26 VA4 cells [2]; Homo sapiens, WI26VA4, read-out: Efficacy, % of control, average, 30 nM) was 24.9%, the activity at 0.1 µM (WI‐26 VA4 cells [2]; Homo sapiens, WI26VA4, read-out: Efficacy, % of control, average, 100 nM) was 3.73% and the activity at 0.3 µM (WI‐26 VA4 cells [2]; Homo sapiens, WI26VA4, read-out: Efficacy, % of control, average, 300 nM) was 2.78%. It also gave an activity at 1 µM (WI‐26 VA4 cells [2]; Homo sapiens, WI26VA4, read-out: Efficacy, % of control, average, 1000 nM) of 2.54%, an activity at 0.0003 µM (WI‐26 VA4 cells [2]; Homo sapiens, WI26VA4, read-out: Efficacy, % of control, single replicate, 0.3 nM) of 114% and an activity at 0.001 µM (WI‐26 VA4 cells [2]; Homo sapiens, WI26VA4, read-out: Efficacy, % of control, single replicate, 1 nM) of 112%. The activity at 1 µM (WI‐26 VA4 cells [2]; Homo sapiens, WI26VA4, read-out: Efficacy, % of control, single replicate, 1000 nM) was 2.31%, the “Collagen HillSlope (best-fit value)” value (WI‐26 VA4 cells [2]; log(inhibitor) vs. response, variable slope (four parameters)) was -2.183 and the “Collagen LogIC50 (best-fit value)” value (WI‐26 VA4 cells [2]; [4]) was 1.183. The IC50 (WI‐26 VA4 cells [2]; read-out: IC50 for collagen level, TGF‐β 2 ng/ml, 72 h (Fig 1B)) was 15 nM, the IC50 ([3]; Homo sapiens, WI26VA4, read-out: IC50, collagen level) was 15.4 nM and the “Collagen level, average” value [3, 5] was 101.54 % of control. The “Collagen level, single replicates” value [3, 5] was 102.13 % of control and 120.79 % of control and 96.95 % of control and 94.78 % of control and 97.01 % of control and 91.61 % of control and 85.22 % of control and 99.08 % of control and 88.51 % of control and 103.40 % of control and 115.28 % of control and 123.69 % of control, the “Collagen level, average” value [3, 6] was 101.93 % of control and the “Collagen level, single replicates” value [3, 6] was 100.26 % of control and 124.52 % of control and 104.32 % of control and 114.35 % of control and 95.53 % of control and 102.09 % of control and 95.23 % of control and 96.53 % of control and 98.60 % of control and 104.60 % of control and 92.58 % of control and 94.60 % of control. For the same compound, the “Collagen level, average” value [3, 7] was 97.24 % of control, the “Collagen level, single replicates” value [3, 7] was 74.39 % of control and 119.08 % of control and 111.81 % of control and 77.98 % of control and 96.46 % of control and 94.83 % of control and 78.75 % of control and 99.39 % of control and 89.90 % of control and 103.30 % of control and 102.16 % of control and 118.87 % of control and the “Collagen level, average” value [3, 8] was 70.83 % of control. For the same compound, the “Collagen level, single replicates” value [3, 8] was 64.31 % of control and 91.60 % of control and 60.26 % of control and 74.23 % of control and 77.87 % of control and 69.39 % of control and 82.84 % of control and 75.26 % of control and 63.48 % of control and 78.01 % of control and 54.94 % of control and 57.79 % of control, the “Collagen level, average” value [3, 9] was 26.11 % of control and the “Collagen level, single replicates” value [3, 9] was 25.57 % of control and 24.68 % of control and 22.36 % of control and 32.03 % of control and 25.38 % of control and 25.85 % of control and 26.88 % of control and 24.32 % of control and 26.43 % of control and 20.94 % of control and 29.04 % of control and 29.85 % of control. The “Collagen level, average” value [3, 10] was 4.47 % of control, the “Collagen level, single replicates” value [3, 10] was 4.44 % of control and 3.82 % of control and 4.24 % of control and 4.79 % of control and 5.13 % of control and 4.94 % of control and 4.02 % of control and 4.80 % of control and 4.41 % of control and 3.44 % of control and 4.93 % of control and 4.63 % of control and the “Collagen level, average” value [3, 11] was 3.35 % of control. The “Collagen level, single replicates” value [3, 11] was 2.94 % of control and 2.13 % of control and 2.73 % of control and 2.78 % of control and 5.38 % of control and 5.19 % of control and 3.51 % of control and 3.53 % of control and 4.16 % of control and 2.06 % of control and 3.52 % of control and 2.22 % of control, the “Collagen level, average” value [3, 12] was 4.10 % of control and the “Collagen level, single replicates” value [3, 12] was 4.74 % of control and 3.22 % of control and 4.71 % of control and 3.16 % of control and 4.63 % of control and 4.53 % of control (2×) and 4.37 % of control and 4.67 % of control and 2.44 % of control and 4.55 % of control and 3.67 % of control. The “HillSlope, collagen level” value ([3]; WI-26 VA4 Flag-PARS1 FA/EA/RL, four-parameter fit) was -1.829 and the “LogIC50, collagen level” value ([3]; WI-26 VA4 Flag-PARS1 FA/EA/RL, log of concentration in nM, four-parameter fit) was 1.188.
